Laboratory results as given in the supplement of paper PMC10307832.

Columns and labels:
Experiment in all cases: relative viability (nuclei count vs DMSO), 5 days (fraction); higher = more cells survive
Serdemetan + Decitabine = compound: c1ccc2c(CCNc3ccc(Nc4ccncc4)cc3)c[nH]c2c1 [Serdemetan] + Nc1ncn([C@H]2C[C@H](O)[C@@H](CO)O2)c(=O)n1 [Decitabine] (partner 2 µM)
Summary of the method: (§1)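 Dosing by pin tool came one day after lung cancer cell lines were seeded in 1536-well plates, using either one drug or a fixed anchor-drug dose plus five library-drug doses (not always all listed) in √10 steps. After 5 days, nuclei were counted on 4× images. Relative viability is treated-well nuclei count divided by vehicle-well nuclei count, and values are medians of duplicate plates.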

Selisistat + Crizotinib = compound: C1CC(C2=C(C1)C3=C(N2)C=CC(=C3)Cl)C(=O)N [Selisistat] + C[C@@H](Oc1cc(-c2cnn(C3CCNCC3)c2)cnc1N)c1c(Cl)ccc(F)c1Cl [Crizotinib] (partner 1 µM)
Summary of the method: as §1

Serdemetan + Tozasertib = compound: c1ccc2c(CCNc3ccc(Nc4ccncc4)cc3)c[nH]c2c1 [Serdemetan] + Cc1cc(Nc2cc(N3CCN(C)CC3)nc(Sc3ccc(NC(=O)C4CC4)cc3)n2)n[nH]1 [Tozasertib] (partner 0.1 µM)
Summary of the method: as §1

Serdemetan + Trametinib = compound: c1ccc2c(CCNc3ccc(Nc4ccncc4)cc3)c[nH]c2c1 [Serdemetan] + CC(=O)Nc1cccc(-n2c(=O)n(C3CC3)c(=O)c3c(Nc4ccc(I)cc4F)n(C)c(=O)c(C)c32)c1 [Trametinib] (partner 0.02 µM)
Summary of the method: as §1

Cell Line: UMC-11
- relative viability (Serdemetan + Decitabine; first compound 0.04 µM): 0.564
- relative viability (Serdemetan + Decitabine; first compound 0.1265 µM): 0.387
- relative viability (Serdemetan + Decitabine; first compound 0.4 µM): 0.685
- relative viability (Serdemetan + Decitabine; first compound 1.265 µM): 0.649
- relative viability (Serdemetan + Decitabine; first compound 4 µM): 0.532
- relative viability (Selisistat + Crizotinib; first compound 0.4 µM): 0.812
- relative viability (Selisistat + Crizotinib; first compound 1.265 µM): 0.653
- relative viability (Selisistat + Crizotinib; first compound 4 µM): 0.683
- relative viability (Selisistat + Crizotinib; first compound 12.65 µM): 0.69
- relative viability (Selisistat + Crizotinib; first compound 40 µM): 0.577
- relative viability (Serdemetan + Tozasertib; first compound 0.04 µM): 0.224
- relative viability (Serdemetan + Tozasertib; first compound 0.1265 µM): 0.199
- relative viability (Serdemetan + Tozasertib; first compound 0.4 µM): 0.208
- relative viability (Serdemetan + Tozasertib; first compound 4 µM): 0.233
- relative viability (Serdemetan + Trametinib; first compound 0.04 µM): 0.703
- relative viability (Serdemetan + Trametinib; first compound 0.1265 µM): 0.672
- relative viability (Serdemetan + Trametinib; first compound 0.4 µM): 0.619
- relative viability (Serdemetan + Trametinib; first compound 1.265 µM): 0.388
- relative viability (Serdemetan + Trametinib; first compound 4 µM): 0.656
